Tests used:
Ts65Dn mice [1] = settings: cited from earlier work; for contextual learning: earlier study
Fgf2 [2] = settings: rats; IP injections; cited from earlier work
Ts65Dn mice [3] = settings: cited from earlier work
[4] = oral administration in rodents; cited from earlier work
Ts65Dn and 2N mice [5] = assay: Fear conditioning (contextual learning); format: in vivo, mouse; settings: context test one day after training, nadolol 5 mg/kg IP then formoterol 2 mg/kg IP or saline
Experimental: (§1) Pharmacological Treatments. […] For details on methods of drug injections see FIG. 16.
b) Fear Conditioning. […] The fear conditioning tests were done using four FreezeScan chambers (Clever Sys) on days 4 and 5 after the start of the open field-testing. […] Four hours later, the mice were placed in the fear-conditioning chamber and their baseline activity was recorded for three minutes. At the end of this period, each mouse was exposed to five shocks (2 seconds each, 0.5 mA) with inter-trial intervals of 80 seconds. Twenty-four hours later, the mice were injected again, similar to the Training Day, and returned to the same fear-conditioning chamber for five minutes and their activity was recorded. Freezing was defined as a lack of movement for 3 frames (29 frames/s).
(§2) FIG. 16. Strategy used for performing IP injections of βAR agonist and antagonist and behavioral testing. […] Four hours later, the mice were tested for cardiovascular and respiratory system effects, open field activity, or fear conditioning. The process started with open field-testing on day 1 followed by fear conditioning on days 4 (training) and 5 (testing).

[6] = in vivo; cited from earlier work
Ts65Dn and 2N mice [7] = assay: Cardiovascular and respiratory system monitoring (MouseOx vital signs monitor); settings: nadolol 5 mg/kg IP, 1 h later formoterol 2 mg/kg IP or saline, tested 4 h later
Experimental: as §1
Cardiovascular and respiratory system monitoring. Peripheral effects of fomoterol were assessed using MOUSEOX® Small Animal Vital Signs Monitor (Starr). The monitor was attached to a collar clip with an LED sensor to enable recordings in free-moving mice. To minimize stress before recording, the collar clip was attached to each animal. After five minutes, heart rate, respiratory rate, and oxygen saturation were recorded using MOUSEOX® 6.3.13 for 10 minutes.
as §2

Fgf2 [8] = assay: Fgf2 gene expression, real-time PCR in DG micro-punches; format: in vivo; settings: normalized to B-actin and Gapdh and to a 2N mouse
DCX-positive neurons = assay: DCX immunostaining: number and dendritic branching of newly born DGCs; format: in vivo, mouse; settings: nadolol alone or nadolol with formoterol
Experimental: (§3) At the end of this period, all mice were anesthetized, perfused, and the brain was extracted. The right hemisphere from each brain was fixed in 4% paraformaldehyde followed by dehydration. The methodology for staining has been published before. […] The left hemisphere was flash frozen and used for gene expression studies.
(§4) Before all staining(s), to inhibit endogenous peroxidase, 70-μm-thick floating sections were pre-incubated in 0.5% H2O2 in 50% methanol for 30 minutes at RT. This was followed by pre-incubating the sections in 0.1% triton and 10% normal serums(s) (NS, Vector Labs) for 1 hour at RT. This was followed by incubation in primary antibodies overnight at RT. […] For DCX staining the sections were kept in pre-warmed (37° C.) for 30 minutes before staining. This was followed by incubation in secondary anti-bodies that were diluted in 0.1% triton and corresponding 1% NS. The sections were then incubated in ABC Lite (1:1000, Vector) for 1 hour. Staining was terminated by incubating in DAB (0.66 mg/ml in tris-HCl) for 5-10 minutes. Finally, the sections were washed, dehydrated and mounted.

Ts65Dn and 2N mice [9] = assay: Open field activity; format: in vivo, mouse; settings: nadolol 5 mg/kg IP then formoterol 2 mg/kg IP or saline; for total distance travelled: in 10 minutes
Experimental: as §1
a) Open Field Activity. Prior to testing, the mice were handled for five days for habituation. […] Four hours later, the mice were tested for open field activity. The open field arena (450 mm×450 mm) had visual cues on the walls. […] The arena was cleaned after each session. The velocity, total distance traveled, and the time spent in the peripheral 50% versus central 50% area of the arena (bouts) for each mouse were quantified and analyzed using TopScan Lite (Clever Sys).
as §2

synaptophysin = assay: Synaptophysin immunostaining of the DG (synaptic density); format: in vivo, mouse; settings: daily IP nadolol alone or nadolol with formoterol until day 16
Experimental: as §3, §4
(§5) FIG. 16. Strategy used for performing IP injections of βAR agonist and antagonist and behavioral testing. […] Four hours later, the mice were tested for cardiovascular and respiratory system effects, open field activity, or fear conditioning. […]

BrdU-positive profiles = assay: BrdU cell count in the DG (cell proliferation); format: in vivo, mouse; settings: 15 days of treatment, then BrdU 50 mg/kg IP daily for 5 days
Experimental: To identify proliferating cells, we used 5-bromo-2′-deoxyuridine (BrdU, Sigma). It was dissolved in PBS, filtered, and kept at 4° C. till use. After 15 days of treatment, each mouse was injected IP daily (50 mg/kg) with BrdU solution for 5 days. Thereafter, on day 21, all mice were anesthetized and transcardially perfused with ice-cold saline. The entire brain was immediately removed and the two hemispheres were separated. The left hemisphere was fixed overnight, cut, and stored. […] This was followed by incubation of sections in ABC.
Stereo-Investigator (MBF) was used to quantify the total number of BrdU-positive cells in the entire septo-temporal extent of DG. Following the outlining of the DG area at 4×, each positive profile was identified using a 100× oil objective. Unbiased stereological methods were used to determine the total number of BrdU-immunoreactive-profiles throughout the hippocampus. A Nanozoomer system (Hamamatsu 2.0 RS) was used to capture images of the entire slide in each case. High magnification images were captured using the Nanozoomer and stored.

c-Fos = c-Fos immunostaining of the DGC layer; format: in vivo, mouse; settings: daily IP nadolol alone or nadolol with formoterol until day 16
Experimental: as §3, §4, §5

Compound: N[C@H](C(=O)O)[C@H](O)c1ccc(O)c(O)c1 [L-DOPS, L-threo-3,4-dihdroxyphenylserine]
- contextual learning (Ts65Dn mice [1]): restored contextual learning

Compound: CC(C)(C)NCC(O)c1cc(Cl)c(N)c(Cl)c1 (stereo not drawn) [clenbuterol]
- Fgf2 mRNA levels in the hippocampus (Fgf2 [2]): significant increase

Compound: CNCCC(Oc1ccc(C(F)(F)F)cc1)c1ccccc1 (stereo not drawn) [fluoxetine]
- neurogenesis (Ts65Dn mice [3]): promote neurogenesis

Compound: COc1ccc(CC(C)NCC(O)c2ccc(O)c(NC=O)c2)cc1 (stereo not drawn) [formoterol]
- time to reach the brain [4]: ≤ 30 min
- duration of freezing (Ts65Dn and 2N mice [5]; Ts65Dn mice): 34.040±3.66 seconds per minute
- crossing of the blood brain barrier [6]: cross the blood brain barrier (BBB) and reach the brain
- O2 saturation (Ts65Dn and 2N mice [7]; 2N mice): 93.221±0.36%
- heart rate (Ts65Dn and 2N mice [7]; 2N mice): 638.440±44.77 pulse per minute
- O2 saturation (Ts65Dn and 2N mice [7]; Ts65Dn mice): 92.205±1.31%
- heart rate (Ts65Dn and 2N mice [7]; Ts65Dn mice): 672.620±36.58 pulse per minute
- respiratory rate (Ts65Dn and 2N mice [7]; Ts65Dn mice): 189.090±8.40 per minute

Compound: CC(C)(C)NCC(O)COc1cccc2c1CC(O)C(O)C2 (stereo not drawn) [nadolol]
- duration of freezing (Ts65Dn and 2N mice [5]; 2N mice): 46.761±3.09 seconds per minute
- duration of freezing (Ts65Dn and 2N mice [5]; Ts65Dn mice): 19.28±4.79 seconds per minute
- Fgf2 gene expression in DG micro-punches (Fgf2 [8]; 2N mice): 1.000±0.41
- Fgf2 gene expression in DG micro-punches (Fgf2 [8]; Ts65Dn mice): 0.344±0.07
- number of DCX-positive DGCs (DCX-positive neurons; 2N mice): 5391.36±744
- order of dendritic branching of DCX-positive neurons (DCX-positive neurons; 2N mice): 2.05±0.12
- number of DCX-positive DGCs (DCX-positive neurons; Ts65Dn mice): 2837.79±500
- order of dendritic branching of DCX-positive neurons (DCX-positive neurons; Ts65Dn mice): 1.58±0.08
- total distance travelled (Ts65Dn and 2N mice [9]; 2N mice): 18.233±1.48 meters
- number of bouts, central 50% area (Ts65Dn and 2N mice [9]; 2N mice): 39.46±4.96
- number of bouts, peripheral 50% area (Ts65Dn and 2N mice [9]; 2N mice): 45.00±5.68
- mean velocity in the open field arena (Ts65Dn and 2N mice [9]; 2N mice, 4 h later): 31.465±2.74 mm/s
- total distance travelled (Ts65Dn and 2N mice [9]; Ts65Dn mice): 30.424±2.70 meters
- number of bouts, central 50% area (Ts65Dn and 2N mice [9]; Ts65Dn mice): 60.25±4.95
- percentage of area covered by synaptophysin staining in the DG (synaptophysin; 2N mice): 27.40±11.00%
- percentage of area covered by synaptophysin staining in the DG (synaptophysin; Ts65Dn mice): 21.50±1.00%
- total number of BrdU-positive profiles in the DG (BrdU-positive profiles; 2N mice): 3,161.390±900
- total number of BrdU-positive profiles in the DG (BrdU-positive profiles; Ts65Dn mice): 2,133.290±491
- density of c-Fos-positive DGCs (c-Fos; 2N mice): 179.30±22.4 cells/mm^2
- density of c-Fos-positive DGCs (c-Fos; Ts65Dn mice): 109.42±13.0 cells/mm^2

Compound: O=C(NCCNCC(O)COc1ccc(O)cc1)N1CCOCC1 (stereo not drawn) [xamoterol]
- contextual learning (Ts65Dn mice [1]): restored contextual learning
- spatial learning and hyperactivity (Ts65Dn mice [1]; later studies): did not improve spatial learning and/or reduce hyperactivity

Reference: patent publication US9320724B2, “Method of improving cognition and increasing dendritic complexity in humans with down syndrome and compositions therefor” (priority 2013, dated 2016)
